The IC50 is the concentration that gives 50% inhibition. A word on the half-life: it is how long it takes for the measured level to halve.

The values that follow come from US5856574A, “Ortho-subsituted benzoylguanidines, process for their preparation, their use as a medicament or diagnostic, and medicament containing them” (Hoechst Aktiengesellschaft, priority 1996, dated 1999).

Structures can show the parent of a compound that is named as a salt.

Data set [1] addresses T1, rabbit erythrocyte Na^+ /H^+ exchanger (Oryctolagus cuniculus, UniProt P23791).
T1 construct: determine the Na+influx into the erythrocytes by way of Na^+ /H^+ exchange; endogenous in cells; host or cells: intact erythrocytes in heparinised blood of cholesterol-fed New Zealand White rabbits
As to the kind of experiment: Inhibition of the rabbit erythrocyte Na^+ /H^+ exchanger (amiloride-sensitive sodium influx, flame photometry). The format is cell-based, rabbit (New Zealand White). The following applies: rabbit erythrocytes, cholesterol-fed, 37° C., pH 7.4. From the text:
Inhibition of the rabbit erythrocyte Na^+ /H^+ exchanger
New Zealand White rabbits (Ivanovas) were given a standard diet containing 2% cholesterol for six weeks in order to activate Na^+ /H^+ exchange and thereby making it possible to use flame photometry to determine the Na+influx into the erythrocytes by way of Na^+ /H^+ exchange. The blood was withdrawn from the aural arteries and rendered incoagulable by adding 25 IU of potassium heparin. A part of each sample was used for determining the hematocrit in duplicate by means of centrifugation. Aliquots of in each case 100 μl were used for measuring the initial content of Na^+ in the erythrocytes.
In order to determine the amiloride-sensitive sodium influx, 100 μl of each blood sample were in each case incubated, at 37° C. and pH 7.4, in 5 ml of a hyper osmolar salt/sucrose medium (mmol/l: 140 NaCl, 3 KCL, 150 sucrose, 0.1 ouabain, 20 tris(hydroxymethyl)aminomethane). After that, the erythrocytes were washed three times with an ice-cold MgCl2 /ouabain solution (mmol/l: 112 MgCl2, 0.1 ouabain) and hemolyzed in 2.0 ml of distilled water. The intracellular content of sodium was determined by flame photometry.
The net Na^+ influx was calculated from the difference between the initial sodium values and the sodium content of the erythrocytes after incubation. The amiloride-inhibitable sodium influx was obtained from the difference in the sodium content of the erythrocytes after incubating them with and without […] amiloride. This procedure was also used in the case of the novel compounds.

Data set [2] can be described thus: Intraduodenal bioavailability. The format is in vivo.
Data set [3] in a line: Plasma elimination half life, rat, i.v. It counts as in vivo. The following applies: iv.
The nature of data set [4]: Plasma elimination half life, dog, i.v. The format is in vivo. To be noted: iv.

T1 sequence (P23791 whole entry): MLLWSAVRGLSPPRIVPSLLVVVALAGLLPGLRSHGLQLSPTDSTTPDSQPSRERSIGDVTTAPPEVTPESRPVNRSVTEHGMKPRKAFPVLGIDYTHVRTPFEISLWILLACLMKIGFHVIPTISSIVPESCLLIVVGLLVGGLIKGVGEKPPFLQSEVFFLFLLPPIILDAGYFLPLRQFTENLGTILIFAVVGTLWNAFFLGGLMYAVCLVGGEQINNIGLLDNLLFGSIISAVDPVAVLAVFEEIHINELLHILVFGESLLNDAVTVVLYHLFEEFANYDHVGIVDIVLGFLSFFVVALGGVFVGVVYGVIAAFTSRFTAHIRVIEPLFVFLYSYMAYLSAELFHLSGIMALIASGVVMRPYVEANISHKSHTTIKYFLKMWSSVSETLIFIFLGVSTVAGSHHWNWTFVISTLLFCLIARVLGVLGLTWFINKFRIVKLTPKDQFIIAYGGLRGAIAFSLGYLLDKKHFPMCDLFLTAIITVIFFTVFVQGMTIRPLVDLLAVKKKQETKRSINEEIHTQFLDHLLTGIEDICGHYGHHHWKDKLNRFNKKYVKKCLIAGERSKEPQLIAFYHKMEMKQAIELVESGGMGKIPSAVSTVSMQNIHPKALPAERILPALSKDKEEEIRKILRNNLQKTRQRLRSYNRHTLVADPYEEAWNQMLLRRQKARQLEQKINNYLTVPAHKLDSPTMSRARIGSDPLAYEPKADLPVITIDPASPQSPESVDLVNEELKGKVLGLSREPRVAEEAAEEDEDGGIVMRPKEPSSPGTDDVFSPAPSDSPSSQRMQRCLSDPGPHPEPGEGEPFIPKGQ

In data set [1], `NC(N)=NC(=O)c1cc(C(F)(F)F)cc(C2CCCC2)c1Cl` [Example 6, 2-Chloro-3-cyclopentyl-5-trifluoromethylbenzoylguanidine hydrochloride] had an IC50 of 60 nM.

In the case of `NC(N)=NC(=O)c1cc(C(F)(F)F)c(C2CCCC2)cc1Cl` [Example 7, 2-Chloro4-cyclopentyl-5-trifluoromethylbenzoylguanidine hydrochloride], inhibition in data set [1] was half-maximal at 30 nM (IC50).

Consider `CC(C)c1cc(C(F)(F)F)cc(C(=O)N=C(N)N)c1Cl` [Example 5, 2-Chloro-3-isopropyl-5-trifluoromethylbenzoylguanidine hydrochloride], for which the IC50 in data set [1] is 20 nM. Further, the Intraduodenal bioavailability entry in data set [2] is listed as “good”. Further, in data set [3], the half-life is 42 min.

In the case of `COc1cc(Cl)c(C(=O)N=C(N)N)cc1C(F)(F)F` [Example 1, 2-Chloro4-methoxy-5-trifluoromethylbenzoylguanidine hydrochloride], the IC50 in data set [1] turned out to be 20 nM. In data set [2], the Intraduodenal bioavailability entry was “good”. Further, the half-life was 19.2 min in data set [3] and 66 min in data set [4].

As to `NC(N)=NC(=O)c1cc(C(F)(F)F)cc(I)c1Cl` [Example 2, 2-Chloro-3-iodo-5-trifluoromethylbenzoylguanidine hydrochloride], the IC50 in data set [1] amounted to 50 nM.

For `CCCc1cc(Cl)c(C(=O)N=C(N)N)cc1C(F)(F)F` [Example 8, 2-Chloro4-n-propyl-5-trifluoromethylbenzoylguanidine hydrochloride], the concentration for half-maximal inhibition (IC50) in data set [1] was found to be 10 nM.

Take `CCCc1cc(C(F)(F)F)cc(C(=O)N=C(N)N)c1Cl` [Example 4, 2-Chloro-3-n-propyl-5-trifluoromethylbenzoylguanidine hydrochloride]: the IC50 in data set [1] stood at 70 nM.
